Experimental data from patent US8258149B2, “Isoquinoline derivatives” (Hoffmann-La Roche Inc., priority 2009, dated 2012).

Tested on: L6 myotubes
Test: Glucose uptake (2-deoxy-D-[3H]glucose) in L6 myotubes, effectiveness in muscular glucose utilization
Format: cell-based
Settings: Rattus norvegicus, L6 myotubes treated with compound 2 hours
Protocol: L6 myoblasts were cultured in DMEM supplemented with 10% FBS. Confluent cells were differentiated to myotubes by culturing with DMEM supplemented with 2% FBS for 6 days. L6 myotubes were treated with compounds for 2 hours. Glucose uptake was performed in 16 h serum-starved cells. Cells were washed with PBS and incubated in Krebs-Ringer phosphate-HEPES buffer containing 0.1% BSA with or without 100 nmol/l insulin. Then, cells were incubated with 0.05 mmol/l 2-deoxy-D-glucose and 0.5 μCi 2-deoxy-D-[1,2-^3H]glucose for 10 min. The assay was terminated by washing the cells three times with ice-cold PBS. Cells were solubilised with 0.1% triton X-100 and radioactivity was determined by liquid scintillation counting. Total cellular protein concentration was measured by the Bradford method. Glucose uptake was performed in duplicate. The compounds were tested at concentrations of 1 uM and 3 uM. In this test, the compounds of formula (I) induce a glucose uptake activity between 1 and 2 fold the glucose uptake activity of the vehicle. Some particularly preferred compounds of formula (I) induce a glucose uptake activity between 1.2 and 2 fold the glucose uptake of the vehicle. Other particularly preferred compounds of formula (I) induce a glucose uptake activity between 1.4 and 2 fold the glucose uptake activity of the vehicle.

Row | Compound | fold induction at 1 µM | fold induction at 3 µM
1 | COc1ccc2c(c1OC)C(c1ccccc1)N1CCc3cc4c(cc3C1=C2)OCO4 (centres unmarked) [Example 1, 9,10-Dimethoxy-8-phenyl-5,8-dihydro-6H-[1,3]dioxolo[4,5-g]isoquino[3,2-a]isoquinoline] | 1.32 | 1.3
2 | COc1ccc2c(c1OC)C1(CCCC1)N1CCc3cc4c(cc3C1C2)OCO4 (centres unmarked) [Example 2, 9′,10′-Dimethoxy-5′,6′,13′,13a′-tetrahydrospiro[cyclopentane-1,8′-[1,3]dioxolo[4,5-g]isoquino[3,2-a]isoquinoline]] | 1.11 | 1.07
3 | C=CC1c2c(ccc(OC)c2OC)C=C2c3cc4c(cc3CCN21)OCO4 (centres unmarked) [Example 3, 9,10-Dimethoxy-8-vinyl-5,8-dihydro-6H-[1,3]dioxolo[4,5-g]isoquino[3,2-a]isoquinoline] | 1.16 | 1.11
4 | C=C(C)C1c2c(ccc(OC)c2OC)C=C2c3cc4c(cc3CCN21)OCO4 (centres unmarked) [Example 4, 8-Isopropenyl-9,10-dimethoxy-5,8-dihydro-6H-[1,3]dioxolo[4,5-g]isoquino[3,2-a]isoquinoline] | 1.86 | 1.46
5 | C#CC1c2c(ccc(OC)c2OC)C=C2c3cc4c(cc3CCN21)OCO4 (centres unmarked) [Example 5, 8-Ethynyl-9,10-dimethoxy-5,8-dihydro-6H-[1,3]dioxolo[4,5-g]isoquino[3,2-a]isoquinoline] |  | 1.15
6 | C=CCC1c2c(ccc(OC)c2OC)C=C2c3cc4c(cc3CCN21)OCO4 (centres unmarked) [Example 6, 8-Allyl-9,10-dimethoxy-5,8-dihydro-6H-[1,3]dioxolo[4,5-g]isoquino[3,2-a]isoquinoline] |  | 1.07
7 | CC#CC1c2c(ccc(OC)c2OC)C=C2c3cc4c(cc3CCN21)OCO4 (centres unmarked) [Example 7, 9,10-Dimethoxy-8-prop-1-ynyl-5,8-dihydro-6H-[1,3]dioxolo[4,5-g]isoquino[3,2-a]isoquinoline] | 1.58 | 1.68
8 | C=C(C)C1c2c(ccc(OC)c2OC)C(C)=C2c3cc4c(cc3CCN21)OCO4 (centres unmarked) [Example 8, 8-Isopropenyl-9,10-dimethoxy-13-methyl-5,8-dihydro-6H-[1,3]dioxolo[4,5-g]isoquino[3,2-a]isoquinoline] | 1.2 | 1.35
9 | CC#CC1c2c(ccc(OC)c2OC)C(C)=C2c3cc4c(cc3CCN21)OCO4 (centres unmarked) [Example 9, 9,10-Dimethoxy-13-methyl-8-prop-1-ynyl-5,8-dihydro-6H-[1,3]dioxolo[4,5-g]isoquino[3,2-a]isoquinoline] | 1.63 | 0.99
10 | C=C(C)C1c2c(ccc(OC)c2OC)C(CC)=C2c3cc4c(cc3CCN21)OCO4 (centres unmarked) [Example 10, 13-Ethyl-8-isopropenyl-9,10-dimethoxy-5,8-dihydro-6H-[1,3]dioxolo[4,5-g]isoquino[3,2-a]isoquinoline] | 1.05 | 1.22
11 | C=CCC1c2c(ccc(OC)c2OC)C(CC)=C2c3cc4c(cc3CCN21)OCO4 (centres unmarked) [Example 11, 8-Allyl-13-ethyl-9,10-dimethoxy-5,8-dihydro-6H-[1,3]dioxolo[4,5-g]isoquino[3,2-a]isoquinoline] | 1.15 | 
12 | CC#CC1c2c(ccc(OC)c2OC)C(CC)=C2c3cc4c(cc3CCN21)OCO4 (centres unmarked) [Example 12, 13-Ethyl-9,10-dimethoxy-8-prop-1-ynyl-5,8-dihydro-6H-[1,3]dioxolo[4,5-g]isoquino[3,2-a]isoquinoline] | 1.59 | 1.22
13 | C=CCC1=C2c3cc4c(cc3CCN2C(C(=C)C)c2c1ccc(OC)c2OC)OCO4 (centres unmarked) [Example 13, 13-Allyl-8-isopropenyl-9,10-dimethoxy-5,8-dihydro-6H-[1,3]dioxolo[4,5-g]isoquino[3,2-a]isoquinoline] | 0.94 | 1.05
14 | COc1ccc2c(c1OC)C(C)(C)N1CCc3cc4c(cc3C1=C2C)OCO4 [Example 14, 9,10-Dimethoxy-8,8,13-trimethyl-5,8-dihydro-6H-[1,3]dioxolo[4,5-g]isoquino[3,2-a]isoquinoline] | 1.21 | 1.18
15 | CCC1(CC)c2c(ccc(OC)c2OC)C(C)=C2c3cc4c(cc3CCN21)OCO4 [Example 15, 8,8-Diethyl-9,10-dimethoxy-13-methyl-5,8-dihydro-6H-[1,3]dioxolo[4,5-g]isoquino[3,2-a]isoquinoline] | 1.22 | 1.14
16 | CCC1=C2c3cc4c(cc3CCN2C(C)(C)c2c1ccc(OC)c2OC)OCO4 [Example 16, 13-Ethyl-9,10-dimethoxy-8,8-dimethyl-5,8-dihydro-6H-[1,3]dioxolo[4,5-g]isoquino[3,2-a]isoquinoline] | 1.25 | 0.91
17 | C=CCC1(CC=C)c2c(ccc(OC)c2OC)C=C2c3cc4c(cc3CCN21)OCO4 [Example 17, 8,8-Diallyl-9,10-dimethoxy-5,8-dihydro-6H-[1,3]dioxolo[4,5-g]isoquino[3,2-a]isoquinoline] | 1.34 | 1.04
18 | COc1ccc2c(c1OC)C(C)(C)N1CCc3cc4c(cc3C1=C2Cc1ccccc1)OCO4 [Example 18, 13-Benzyl-9,10-dimethoxy-8,8-dimethyl-5,8-dihydro-6H-[1,3]dioxolo[4,5-g]isoquino[3,2-a]isoquinoline] | 1.19 | 1.05
19 | COc1cc(Cl)c2c(c1OC)C(C)(C)N1CCc3cc4c(cc3C1=C2)OCO4 [Example 19, 12-Chloro-9,10-dimethoxy-8,8-dimethyl-5,8-dihydro-6H-[1,3]dioxolo[4,5-g]isoquino[3,2-a]isoquinoline] | 1.25 | 1.24
20 | COc1ccc2c(c1OC)C1(CCCC1)N1CCc3cc4c(cc3C1=C2)OCO4 [Example 20, 9′,10′-Dimethoxy-5′,6′-dihydrospiro[cyclopentane-1,8′-[1,3]dioxolo[4,5-g]isoquino[3,2-a]isoquinoline]] | 1.2 | 1.18
21 | COc1ccc2c(c1OC)C(C)(C)N1CCc3cc4c(cc3C1C2)OCO4 (centres unmarked) [Example 21, 9,10-Dimethoxy-8,8-dimethyl-5,8,13,13a-tetrahydro-6H-[1,3]dioxolo[4,5-g]isoquino[3,2-a]isoquinoline] | 1.22 | 1.14
22 | COc1ccc2c(c1OC)C(C)(C)N1CCc3cc4c(cc3C1C2C)OCO4 (centres unmarked) [Example 22, 9,10-Dimethoxy-8,8,13-trimethyl-5,8,13,13a-tetrahydro-6H-[1,3]dioxolo[4,5-g]isoquino[3,2-a]isoquinoline] | 1.38 | 1.46
23 | CCC1(CC)c2c(ccc(OC)c2OC)C(C)C2c3cc4c(cc3CCN21)OCO4 (centres unmarked) [Example 23, 8,8-Diethyl-9,10-dimethoxy-13-methyl-5,8,13,13a-tetrahydro-6H-[1,3]dioxolo[4,5-g]isoquino[3,2-a]isoquinoline] | 1.1 | 1.14
24 | COc1ccc2c(c1OC)C(C)(C)N1CCc3cc4c(cc3C1C2Cc1ccccn1)OCO4 (centres unmarked) [Example 24, 9,10-Dimethoxy-8,8-dimethyl-13-pyridin-2-ylmethyl-5,8,13,13a-tetrahydro-6H-[1,3]dioxolo[4,5-g]isoquino[3,2-a]isoquinoline] | 1.11 | 1.03
25 | COc1ccc2c(c1OC)C(C)(C)N1CCc3cc4c(cc3C1C2Cc1ccccc1)OCO4 (centres unmarked) [Example 25, 13-Benzyl-9,10-dimethoxy-8,8-dimethyl-5,8,13,13a-tetrahydro-6H-[1,3]dioxolo[4,5-g]isoquino[3,2-a]isoquinoline] | 1.13 | 1.02
26 | COc1ccc2c(c1OC)C1(CC=CC1)N1CCc3cc4c(cc3C1C2)OCO4 (centres unmarked) [Example 26, 9′,10′-Dimethoxy-5′,6′,13′,13a′-tetrahydrospiro[cyclopent-3-ene-1,8′-[1,3]dioxolo[4,5-g]isoquino[3,2-a]isoquinoline]] | 1.12 | 1.11
27 | COc1ccc2c(c1OC)C(C)(C)N1CCc3cc4c(cc3C1=C2)OCO4 [Example 27, 9,10-Dimethoxy-8,8-dimethyl-5,8-dihydro-6H-[1,3]dioxolo[4,5-g]isoquino[3,2-a]isoquinoline] | 1.62 | 1.65
28 | CCC1(CC)c2c(ccc(OC)c2OC)C=C2c3cc4c(cc3CCN21)OCO4 [Example 28, 8,8-Diethyl 9,10-dimethoxy-5,8-dihydro-6H-[1,3]dioxolo[4,5-g]isoquino[3,2-a]isoquinoline] | 1.47 | 1.12
